Measured values reported in BindingDB's records for PubMed 1848629 (Georgetown University, 1991).
“And” between values parts separate entries of the source, which are not always exact repeats. Equal values may be shown once.

What follows are molecules tested against Gamma-aminobutyric acid type B receptor subunit 1 (UniProt Q9Z0U4).
Chain of Gamma-aminobutyric acid type B receptor subunit 1 (Q9Z0U4 whole entry): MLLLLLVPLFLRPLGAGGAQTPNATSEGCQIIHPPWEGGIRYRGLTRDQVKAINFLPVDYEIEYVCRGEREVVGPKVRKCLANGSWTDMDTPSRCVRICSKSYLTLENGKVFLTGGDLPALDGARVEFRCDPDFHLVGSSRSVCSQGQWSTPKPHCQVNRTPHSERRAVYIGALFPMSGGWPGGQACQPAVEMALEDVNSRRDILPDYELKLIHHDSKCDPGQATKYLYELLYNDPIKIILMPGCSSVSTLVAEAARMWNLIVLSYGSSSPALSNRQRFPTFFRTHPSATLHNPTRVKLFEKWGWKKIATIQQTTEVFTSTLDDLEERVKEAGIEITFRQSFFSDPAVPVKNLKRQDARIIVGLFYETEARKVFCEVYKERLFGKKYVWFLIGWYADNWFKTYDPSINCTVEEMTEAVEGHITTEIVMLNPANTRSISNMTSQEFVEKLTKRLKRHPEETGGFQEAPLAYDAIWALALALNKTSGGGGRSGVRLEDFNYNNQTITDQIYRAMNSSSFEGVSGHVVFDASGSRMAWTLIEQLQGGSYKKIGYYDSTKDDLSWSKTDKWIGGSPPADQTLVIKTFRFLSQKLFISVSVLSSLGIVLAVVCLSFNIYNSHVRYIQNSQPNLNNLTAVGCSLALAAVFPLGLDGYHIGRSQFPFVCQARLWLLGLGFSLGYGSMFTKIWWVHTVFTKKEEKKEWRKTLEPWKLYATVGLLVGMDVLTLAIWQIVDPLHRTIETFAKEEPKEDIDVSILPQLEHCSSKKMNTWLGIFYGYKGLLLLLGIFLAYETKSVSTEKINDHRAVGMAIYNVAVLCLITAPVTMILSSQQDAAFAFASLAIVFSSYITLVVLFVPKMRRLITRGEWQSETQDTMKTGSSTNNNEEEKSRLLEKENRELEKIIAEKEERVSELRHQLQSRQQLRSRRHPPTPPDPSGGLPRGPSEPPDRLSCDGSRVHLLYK
`CC[C@@H](C)N(C)C(=O)c1cc2ccccc2c(-c2ccccc2Cl)n1` [PK 11195] was tested, and the Ki was 1000 nM.
In the case of `CN1C(=O)CN=C(c2ccccc2)c2cc(Cl)ccc21`, the Ki is reported as 19 nM and 18 nM and 22 nM and 20 nM and 26 nM.
With `CN1C(=O)CN=C(c2ccccc2F)c2cc([N+](=O)[O-])ccc21` [Flunitrazepam] the Ki was 8.8 nM and 10 nM and 6.1 nM and 5 nM and 7.5 nM.
For `Cc1nnc2n1-c1ccc(Cl)cc1C(c1ccccc1)=NC2`, the Ki was 4.5 nM and 5 nM and 6.7 nM and 5.3 nM and 8 nM.
In the case of `CN1C(=O)CN=C(c2ccc(Cl)cc2)c2cc(Cl)ccc21` [Ro5-4864], the Ki is reported as 1000 nM.

What follows are molecules tested against Gamma-aminobutyric acid (GABA) B receptor 1 (Rattus norvegicus, UniProt Q6MFX8).
Chain of Gamma-aminobutyric acid (GABA) B receptor 1 (Q6MFX8 whole entry): as the sequence (Q9Z0U4 whole entry) above
With `CCOC(=O)c1ncn2c1CN(C)C(=O)c1cc(F)ccc1-2` [ethyl 12-fluoro-8-methyl-9-oxo-2,4,8-triazatricyclo[8.4.0.0^{2,6}]tetradeca-1(14),3,5,10,12-pentaene-5-carboxylate] the Ki was 1 nM and 2 nM and 1.9 nM.
With `Cc1nnc2ccc(-c3cccc(C(F)(F)F)c3)nn12` the Ki was 15 nM and 12 nM and 100 nM.
